One assay deals with Lectin Pathway. Put plainly: Lectin Pathway Activation Assay in Human Serum (mannan-coated ELISA, C3c detection). It is filed as biochemical. The note with it: 1% human serum. How it is done:
Microtiter ELISA plate was coated with mannan from Saccharomyces cerevisiae (Sigma-Aldrich, M7504) for overnight at 4° C. in coating buffer [15 mM Na2CO3, 35 mM NaHCO3]. Plate was blocked with 1% bovine serum albumin (BSA) (Sigma-Aldrich, A3294) in Tris-buffered Saline (TBS) [10 mM Tris-HCl, 140 mM NaCl] for 2 hours at room temperature. […] 100 μL of this mixture were then added to the plate and plate was incubated at 37° C. for up to an hour with gentle shaking, 200 rpm. After that, plate was washed thrice in wash buffer [TBS containing 5 mM CaCl2) and 0.05% Tween-20] and 100 μL of rabbit anti human C3c (Dako, A0062) diluted 1:5000 in wash buffer were added and incubated at 37° C. for 30 minutes.
(In general: An ELISA detects its analyte on a solid surface through an enzyme-linked reagent.)
One may read the IC50 as the concentration that inhibits the measured activity by half. A high value points to lower potency. `C[C@H](NC(=O)[C@H](N)Cc1cccc2ccccc12)C(=O)NCc1ccc(C(=N)N)cc1` [compound 1092] yielded an IC50 of 50 to 5000 nM. On to `C[C@H](NC(=O)[C@H](N)CCc1ccccc1)C(=O)NCc1ccc(C(=N)N)cc1` [compound 1024], for which the 50% inhibitory concentration (IC50) is under 500 nM. `N=C(N)c1ccc(CNC(=O)[C@@H]2CCCN2C(=O)[C@H](N)C2CCCCC2)cc1` [compound 1027] had an IC50 of 50 to 5000 nM.

On to `N=C(N)c1ccc(CNC(=O)[C@@H]2CCN2C(=O)[C@H](NCC(=O)O)C2CCCCC2)cc1` [compound 999, melagatran, reference compound], for which the concentration for half-maximal inhibition (IC50) lay in the range of 500 to 50000 nM.

`C[C@@H](C(=O)NCc1ccc(C(=N)N)cc1)N(C)C(=O)[C@H](NCC(=O)O)C1CCCCC1` [compound 1107] yielded an IC50 of 500 to 50000 nM. `N=C(N)c1ccc(CNC(=O)[C@@H]2CCN2C(=O)[C@H](N)C2Cc3ccccc3C2)cc1` [compound 1058, (S)-1-((R)-2-Amino-2-(2,3-dihydro-1H-inden-2-yl)acetyl)-N-(4-carbamimidoylbenzyl)azetidine-2-carboxamide] came in with an IC50 of 50 to 5000 nM. Molecule `CN(CC(=O)NCc1ccc(C(=N)N)cc1)C(=O)[C@H](NCC(=O)O)C1CCCCC1` [compound 1096] showed an IC50 of 500 to 50000 nM. `N=C(N)c1ccc(CNC(=O)[C@@H]2CCN2C(=O)[C@H](N)CCc2ccccc2)cc1` [compound 1038]: the half-inhibitory concentration (IC50) is under 500 nM. Turning to `C[C@H](NC(=O)[C@H](N)CCc1ccc(F)cc1)C(=O)NCc1ccc(C(=N)N)cc1` [compound 1047], the IC50 was in the range of 50 to 5000 nM.

With `Cc1ccc(CC[C@@H](N)C(=O)N[C@@H](C)C(=O)NCc2ccc(C(=N)N)cc2)cc1` [compound 1043], the IC50 is 50 to 5000 nM.

Regarding `N=C(N)c1ccc(CNC(=O)[C@@H]2CCN2C(=O)[C@@H](CCc2ccccc2)NCC(=O)O)cc1` [compound 1124], the IC50 is under 500 nM. For the molecule `C[C@H](NC(=O)[C@@H](CCc1ccccc1)NCC(=O)O)C(=O)NCc1ccc(C(=N)N)cc1` [compound 1110], the half-inhibitory concentration (IC50) was under 500 nM. With `N=C(N)c1ccc(CNC(=O)[C@@H]2CCN2C(=O)[C@H]2Cc3ccccc3CN2)cc1` [compound 1034], the IC50 lay in the range of 500 to 50000 nM. With `C[C@H](NC(=O)[C@H](N)CCc1ccc(Cl)cc1)C(=O)NCc1ccc(C(=N)N)cc1` [compound 1080], the IC50 lay in the range of 50 to 5000 nM.

Staying with this assay, now noted: 1% human serum, mannan-coated plate.
On to `Cc1nc(N)ccc1CNC(=O)[C@H](C)NC(=O)[C@H]1C[C@H](Cc2ccccc2-c2ccc(Cl)s2)CN1` [compound 1410, (2R,4S)—N—((S)-1-(((6-Amino-2-methylpyridin-3-yl)methyl)amino)-1-oxopropan-2-yl)-4-(2-(5-chlorothiophen-2-yl)benzyl)pyrrolidine-2-carboxamide], for which the 50% inhibitory concentration (IC50) lay within 500 to 5000 nM. The molecule `C[C@H](NC(=O)[C@H]1C[C@H](c2ccccc2)CN1)C(=O)NCc1cnc2c(c1)c(Cl)cn2C` [compound 1442, (2R,4R)—N—((S)-1-(((3-Chloro-1-methyl-1H-pyrrolo[2,3-b]pyridin-5-yl)methyl)amino)-1-oxopropan-2-yl)-4-phenylpyrrolidine-2-carboxamide] yielded an IC50 of 500 to 5000 nM. `C[C@H](NC(=O)[C@H]1C[C@H](Cc2ccccc2-c2ccc(Cl)s2)CN1)C(=O)NCc1cc(Cl)ccc1-n1cnnn1` [compound 1409, (2R,4S)—N—((S)-1-((5-Chloro-2-(1H-tetrazol-1-yl)benzyl)amino)-1-oxopropan-2-yl)-4-(2-(5-chlorothiophen-2-yl)benzyl)pyrrolidine-2-carboxamide] gave an IC50 of 500 to 5000 nM. `C[C@H](NC(=O)[C@H]1C[C@H](c2ccccc2)CN1)C(=O)NCc1cc(Cl)cc(Cl)c1O` [compound 1395, (2R,4R)—N—((S)-1-((3,5-dichloro-2-hydroxybenzyl)amino)-1-oxopropan-2-yl)-4-phenylpyrrolidine-2-carboxamide] gave an IC50 of 5000 to 50000 nM. On the same count and under the same terms, under `Cc1nc(N)ccc1CNC(=O)[C@H](C)NC(=O)[C@H]1C[C@H](Cc2cccc(C(=O)N3CCC3)c2)CN1` [compound 1420, (2R,4S)—N—((S)-1-(((6-Amino-2-methylpyridin-3-yl)methyl)amino)-1-oxopropan-2-yl)-4-(3-(azetidine-1-carbonyl)benzyl)pyrrolidine-2-carboxamide] stands 50 to 500 nM. In turn, `C[C@H](NC(=O)[C@H]1C[C@@H](c2ccccc2)CCN1)C(=O)NCc1cc(Cl)ccc1-n1cnnn1` [compound 1426, (2R,4S)—N—((S)-1-((5-Chloro-2-(1H-tetrazol-1-yl)benzyl)amino)-1-oxopropan-2-yl)-4-phenylpiperidine-2-carboxamide] yielded an IC50 of under 50 nM. With `COc1cc(C[C@@H]2CN[C@@H](C(=O)N[C@@H](C)C(=O)NCc3ccc(N)nc3C)C2)cc(OC)c1` [compound 1407, (2R,4S)—N—((S)-1-(((6-Amino-2-methylpyridin-3-yl)methyl)amino)-1-oxopropan-2-yl)-4-(3,5-dimethoxybenzyl)pyrrolidine-2-carboxamide], the IC50 is 50 to 500 nM. The molecule `Cc1nc(N)ccc1CNC(=O)[C@H](C)NC(=O)[C@H]1C[C@H](Cc2cc(-c3ccccc3)cs2)CN1` [compound 1399, (2R,4R)—N—((S)-1-(((6-Amino-2-methylpyridin-3-yl)methyl)amino)-1-oxopropan-2-yl)-4-((4-phenylthiophen-2-yl)methyl)pyrrolidine-2-carboxamide] had an IC50 of 50 to 500 nM. Still for that read-out and setting: under `Cc1nc(N)ccc1CNC(=O)[C@H](C)NC(=O)[C@H]1C[C@H](Cc2ccccc2-c2ccccc2)CN1` [compound 1373, (2R,4S)-4-([1,1′-Biphenyl]-2-ylmethyl)-N—((S)-1-(((6-amino-2-methylpyridin-3-yl)methyl)amino)-1-oxopropan-2-yl)pyrrolidine-2-carboxamide] stands 50 to 500 nM. As for `Cc1nc(N)ccc1CNC(=O)[C@H](C)NC(=O)[C@H]1C[C@H](Cc2cccc(-c3ccccc3)c2)CN1` [compound 1406, (2R,4S)-4-([1,1′-Biphenyl]-3-ylmethyl)-N—((S)-1-(((6-amino-2-methylpyridin-3-yl)methyl)amino)-1-oxopropan-2-yl)pyrrolidine-2-carboxamide], the IC50 was in the range of 50 to 500 nM. As for `Cc1nc(N)ccc1CNC(=O)[C@H](C)NC(=O)[C@H]1C[C@@H](c2ccccc2)CCN1CCC(=O)O` [compound 1411, 3-((2R,4S)-2-(((S)-1-(((6-Amino-2-methylpyridin-3-yl)methyl)amino)-1-oxopropan-2-yl)carbamoyl)-4-phenylpiperidin-1-yl)propanoic acid], the half-maximal inhibitory concentration (IC50) lay within 50 to 500 nM. As for `Cc1nc(N)ccc1CNC(=O)[C@H](C)NC(=O)[C@H]1C[C@@H](c2ccccc2)CCN1CC(=O)O` [compound 1398, 2-((2R,4S)-2-(((S)-1-(((6-Amino-2-methylpyridin-3-yl)methyl)amino)-1-oxopropan-2-yl)carbamoyl)-4-phenylpiperidin-1-yl)acetic acid], the IC50 fell in the range of 50 to 500 nM.

For `CCCCCN[C@H](CCc1ccccc1)C(=O)N[C@@H](C)C(=O)NCc1ccc(N)nc1C` [compound 1377, (R)—N—((S)-1-(((6-Amino-2-methylpyridin-3-yl)methyl)amino)-1-oxopropan-2-yl)-2-(pentylamino)-4-phenylbutanamide], the IC50 fell in the range of 50 to 500 nM. `Cc1nc(N)ccc1CNC(=O)[C@H](C)NC(=O)[C@@H](CCc1ccccc1)NCc1ccc(C(=O)N2CCOCC2)cc1` [compound 1381, (R)—N—((S)-1-(((6-Amino-2-methylpyridin-3-yl)methyl)amino)-1-oxopropan-2-yl)-2-((4-(morpholine-4-carbonyl)benzyl)amino)-4-phenylbutanamide] had an IC50 of 500 to 5000 nM.

Source of the values: patent publication US20260193179A9 (priority 2018, published 2026).
